Series [1] in a line: Plasma concentrations of ANAVEX2-73 and its metabolite ANAVEX19-144 in the 57-week study. Format: in vivo, human. The note with it: for Mean Concentration ANAVEX2-73, Max / Mean Concentration ANAVEX2-73, Mean / Mean Concentration ANAVEX2-73, Min: plasma. As for the experimental part:
A pharmacokinetics analysis was performed during Part A only. Blood samples were drawn at 12 and 11 time points after the first oral or IV administration during the first and second periods of Part A, respectively. Pharmacokinetic parameters included in the analysis consisted of maximum plasma drug concentration (C max), time to maximum plasma concentration during a dosing interval (t max), area under the curve from the time of dosing to the last measurable concentration (AUC0-t), mean elimination half-life (t ½), and the total body clearance for extravascular administration divided by the fraction of dose absorbed (CL/F).
Steady-state plasma levels of ANAVEX2-73 and its metabolite ANAVEX19-144 were assessed in Part B through blood samples collection at pre-specified time points (Weeks 12, 26, 36 and 48). Mean concentration values in ng/mL of each patient were then averaged. Table 14 illustrates mean plasma concentrations of ANAVEX2-73 and its metabolite ANAVEX19-144 during the 57-week study study.

Series [2] is described as follows: Safety and tolerability, 57-week study. The class given is in vivo, human. On the procedure:
Part B, following immediately after Part A, was an open-label extension of the oral daily dose for an additional 52 weeks. The primary endpoint of 57-week study was to establish the safety and tolerability of the drug. Secondary endpoints aimed at establishing the relationship between dosing regimen and pharmacodynamics-exploratory efficacy outcomes of cognition and function. Cognition was assessed by the Mini Mental State Examination (MMSE), while functional abilities by the Alzheimer's Disease Co-operative Study—Activities of Daily Living Inventory (ADCS-ADL). Additional cognitive measures included the Cogstate Brief Battery (CBB), and functional measures of Electroencephalography and Event-Related Potential (EEG and ERP). Part B continued an adaptive oral administration scheme. Table 12 summarizes mean oral dose administration during the 57-week study study. Safety was evaluated by assessment of incidence and severity of adverse events, vital signs, physical examination, clinical laboratory parameters (hematology, serum chemistry and urinalysis), and electrocardiogram (data not shown).

The subject of series [3] is cholinergic muscarinic receptors. The conditions noted are these: mice; cited from earlier work.

Turning to `CN(C)CC1CCOC1(c1ccccc1)c1ccccc1.Cl` (stereo not shown) [ANAVEX2-73, tetrahydro-N,N-dimethyl-2,2-diphenyl-3-furanmethanamine hydrochloride], the “plasma concentration versus dose in the present study” value in series [1] (57-week study Part A, FIG. 2B) is “dose-dependent increase”. The results for the “Mean Concentration ANAVEX2-73, Max” value in series [1] (Part A1 (Day 1-2)), in series [1] (Part A2 (Day 3-12)) and in series [1] (Part B (Week 5 to Week 57)) were 15.9 ng/mL, 8.44 ng/mL and 11.58 ng/mL, respectively. Besides, the “Mean Concentration ANAVEX2-73, Mean” value in series [1] (Part A1 (Day 1-2)) stood at 5.25 ng/mL; in series [1] (Part A2 (Day 3-12)), 2.11 ng/mL; in series [1] (Part B (Week 5 to Week 57)), 3.8 ng/mL. Also, the “Mean Concentration ANAVEX2-73, Min” value came to 0.84 ng/mL in series [1] (Part A1 (Day 1-2: within 2 days of first oral dose), N = 32 patients); 0.03 ng/mL in series [1] (Part A2 (Day 3-12)); 0 ng/mL in series [1] (Part B (Week 5 to Week 57)). Besides, the “primary endpoint of safety and tolerability” value in series [2] (57-week Phase 2a AD study, 32 patients with mild to moderate AD) is “met its primary endpoint of safety and tolerability”. For the same compound, the “patients discontinued due to an Adverse Event (AE)” value in series [2] (57-week study, seven patients discontinued in total) is recorded as “one”. Further, the “modulation of cholinergic muscarinic receptors” value in series [3] is given as “modulate cholinergic muscarinic receptors”.

Values taken from patent US12383526B2, “Optimized sigma-1 agonist method of responder selection and treatment” (ANAVEX LIFE SCIENCES CORP., priority 2018, dated 2025).
